Laboratory results: the supplement of paper PMC11451515

Key:
Conditions in all cases: 48 h
NOMO1 [1] = assay: cell viability relative to DMSO control; higher = less cytotoxic
In short: (§1)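 NOMO1 or SEM cells were plated at 500 cells/well and P12-Ichikawa cells at 1000 cells/well in 1536-well plates (5 μl), after each leukemia line had been adapted for at least four passages in each medium. Pin dosing delivered library compounds in DMSO at 11 threefold concentrations, 47 μM to 0.79 nM. CellTiter-Glo One luminescence was read after 48 h at 37°C. Viability is reported as a per-plate percentage of DMSO wells, with cell-free wells as background.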

P12-Ichikawa [2] = assay: as above
In short: as §1

SEM cells [3] = assay: as above
In short: as §1

NOMO1 [4] = assay: AUC of viability dose-response curve (% viability x log10 dose units); higher = less sensitive
In short: (§2)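 Viability of medium-adapted leukemia cells was measured by CellTiter-Glo One luminescence after 48 h at 37°C with library compounds in DMSO. Doses were 11 threefold steps from 47 μM to 0.79 nM, in 1536-well plates at 500 or 1000 cells/well. Signals were normalised per plate to DMSO and cell-free wells and fitted with a four-parameter log-logistic model on log10 dose. Area under the curve was integrated by trapezoidal rule, with curves exceeding full viability scaled and failed quality-control curves removed.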

P12-Ichikawa [5] = assay: as above
In short: as §2

SEM cells [6] = assay: as above
In short: as §2

CC[C@]1(O)C[C@H]2CN(CCC3=C([NH]C4=C3C=CC=C4)[C@@](C2)(C(=O)OC)C5=CC6=C(C=C5OC)N(C=O)[C@H]7[C@](O)([C@H](OC(C)=O)[C@]8(CC)\C=C/C[N@@]9CC[C@]67[C@H]89)C(=O)OC)C1
cell viability [%]
Conditions | NOMO1 [1] | P12-Ichikawa [2] | SEM cells [3]
HPLM + 10% dialyzed FBS, 0.000781 µM | 119 | 118 | 114
HPLM + 10% dialyzed FBS, 0.00234 µM | 117 | 117 | 104
HPLM + 10% dialyzed FBS, 0.00702 µM | 127 | 119 | 95.2
HPLM + 10% dialyzed FBS, 0.0211 µM | 110 | 82.3 | 84
HPLM + 10% dialyzed FBS, 0.0632 µM | 35.3 | 21.6 | 36.5
HPLM + 10% dialyzed FBS, 0.19 µM | 34.7 | 17.7 | 24.7
HPLM + 10% dialyzed FBS, 0.569 µM | 43.2 | 11 | 20.7
HPLM + 10% dialyzed FBS, 1.71 µM | 47 | 10.2 | 23.2
HPLM + 10% dialyzed FBS, 5.12 µM | 47.1 | 11.3 | 16.4
HPLM + 10% dialyzed FBS, 15.4 µM | 50.9 | 9.28 | 10.7
HPLM + 10% dialyzed FBS, 46.1 µM | 41.6 | 8.54 | 7.67
RPMI 5 mM glucose + 10% FBS, 0.000781 µM | 120 | 115 | 70.8
RPMI 5 mM glucose + 10% FBS, 0.00234 µM | 118 | 109 | 70.8
RPMI 5 mM glucose + 10% FBS, 0.00702 µM | 127 | 112 | 67
RPMI 5 mM glucose + 10% FBS, 0.0211 µM | 116 | 75.1 | 39.6
RPMI 5 mM glucose + 10% FBS, 0.0632 µM | 38.9 | 19.5 | 13.4
RPMI 5 mM glucose + 10% FBS, 0.19 µM | 24.4 | 15.9 | 11
RPMI 5 mM glucose + 10% FBS, 0.569 µM | 23 | 9.98 | 12
RPMI 5 mM glucose + 10% FBS, 1.71 µM | 30.7 | 8.03 | 8.09
RPMI 5 mM glucose + 10% FBS, 5.12 µM | 28.6 | 8.69 | 4.93
RPMI 5 mM glucose + 10% FBS, 15.4 µM | 30.4 | 8.09 | 3.51
RPMI 5 mM glucose + 10% FBS, 46.1 µM | 25.8 | 6.94 | 2.93
RPMI 5 mM glucose + 10% dialyzed FBS, 0.000781 µM | – | 105 | 99.8
RPMI 5 mM glucose + 10% dialyzed FBS, 0.00234 µM | – | 108 | 108
RPMI 5 mM glucose + 10% dialyzed FBS, 0.00702 µM | – | 110 | 106
RPMI 5 mM glucose + 10% dialyzed FBS, 0.0211 µM | – | 106 | 90.3
RPMI 5 mM glucose + 10% dialyzed FBS, 0.0632 µM | – | 35.6 | 46.3
RPMI 5 mM glucose + 10% dialyzed FBS, 0.19 µM | – | 34.6 | 18
RPMI 5 mM glucose + 10% dialyzed FBS, 0.569 µM | – | 20.5 | 16.2
RPMI 5 mM glucose + 10% dialyzed FBS, 1.71 µM | – | 12 | 18.1
RPMI 5 mM glucose + 10% dialyzed FBS, 5.12 µM | – | 12.1 | 11.5
RPMI 5 mM glucose + 10% dialyzed FBS, 15.4 µM | – | 12.8 | 6.29
RPMI 5 mM glucose + 10% dialyzed FBS, 46.1 µM | – | 12.6 | 5.26

AUC of viability dose-response curve
Conditions | HPLM + 10% dialyzed FBS | RPMI 5 mM glucose + 10% FBS | RPMI 5 mM glucose + 10% dialyzed FBS
NOMO1 [4] | 272 | 239 | 264
P12-Ichikawa [5] | 185 | 180 | 224

O=C(NCc1ccncc1)C12C[C@H]3C[C@@H](C1)CC(c1ccc(Cl)cc1)(C3)C2
AUC of viability dose-response curve
Conditions | NOMO1 [4] | P12-Ichikawa [5] | SEM cells [6]
HPLM + 10% dialyzed FBS | 419 | 415 | 414
RPMI 5 mM glucose + 10% FBS | 453 | 439 | 389
RPMI 5 mM glucose + 10% dialyzed FBS | 451 | 438 | 420

Fc1ccc(CNc2ncnc3ccc(F)cc23)cc1
AUC of viability dose-response curve
Conditions | HPLM + 10% dialyzed FBS | RPMI 5 mM glucose + 10% FBS | RPMI 5 mM glucose + 10% dialyzed FBS
NOMO1 [4] | 445 | 452 | 419
P12-Ichikawa [5] | 453 | 429 | 429

CN(C)CCN(C)CCc1ccc(Cl)c(Cl)c1
cell viability [%], SEM cells [3]
Conditions | HPLM + 10% dialyzed FBS | RPMI 5 mM glucose + 10% FBS
0.000781 µM | 118 | 123
0.00234 µM | 114 | 101
0.00702 µM | 132 | 121
0.0211 µM | 131 | 125
0.0632 µM | 128 | 124
0.19 µM | 131 | 133
0.569 µM | 127 | 145
1.71 µM | 119 | 132
5.12 µM | 122 | 127
15.4 µM | 114 | 131
46.1 µM | 114 | 126

AUC of viability dose-response curve
Conditions | NOMO1 [4] | P12-Ichikawa [5] | SEM cells [6]
HPLM + 10% dialyzed FBS | 473 | 467 | 466
RPMI 5 mM glucose + 10% FBS | 473 | 465 | 458
RPMI 5 mM glucose + 10% dialyzed FBS | 473 | 466 | 451

CC(C)OC(=O)CCC/C=C\C[C@@H]1[C@@H](/C=C/[C@@H](O)COc2cccc(C(F)(F)F)c2)[C@H](O)C[C@@H]1O
cell viability [%]
Conditions | P12-Ichikawa [2] | SEM cells [3]
HPLM + 10% dialyzed FBS, 0.000781 µM | 109 | 65.4
HPLM + 10% dialyzed FBS, 0.00234 µM | 120 | 124
HPLM + 10% dialyzed FBS, 0.00702 µM | 122 | 115
HPLM + 10% dialyzed FBS, 0.0211 µM | 127 | 118
HPLM + 10% dialyzed FBS, 0.0632 µM | 115 | 118
HPLM + 10% dialyzed FBS, 0.19 µM | 119 | 118
HPLM + 10% dialyzed FBS, 0.569 µM | 118 | 121
HPLM + 10% dialyzed FBS, 1.71 µM | 115 | 122
HPLM + 10% dialyzed FBS, 5.12 µM | 112 | 106
HPLM + 10% dialyzed FBS, 15.4 µM | 104 | 102
HPLM + 10% dialyzed FBS, 46.1 µM | 65.1 | 31.7
RPMI 5 mM glucose + 10% dialyzed FBS, 0.000781 µM | 112 | –
RPMI 5 mM glucose + 10% dialyzed FBS, 0.00234 µM | 126 | –
RPMI 5 mM glucose + 10% dialyzed FBS, 0.00702 µM | 120 | –
RPMI 5 mM glucose + 10% dialyzed FBS, 0.0211 µM | 121 | –
RPMI 5 mM glucose + 10% dialyzed FBS, 0.0632 µM | 127 | –
RPMI 5 mM glucose + 10% dialyzed FBS, 0.19 µM | 123 | –
RPMI 5 mM glucose + 10% dialyzed FBS, 0.569 µM | 124 | –
RPMI 5 mM glucose + 10% dialyzed FBS, 1.71 µM | 119 | –
RPMI 5 mM glucose + 10% dialyzed FBS, 5.12 µM | 110 | –
RPMI 5 mM glucose + 10% dialyzed FBS, 15.4 µM | 92.7 | –
RPMI 5 mM glucose + 10% dialyzed FBS, 46.1 µM | 46.1 | –

AUC of viability dose-response curve
Conditions | NOMO1 [4] | P12-Ichikawa [5] | SEM cells [6]
HPLM + 10% dialyzed FBS | 443 | 459 | 455
RPMI 5 mM glucose + 10% FBS | 448 | 439 | 452
RPMI 5 mM glucose + 10% dialyzed FBS | 450 | 446 | 434

C[C@@H](c1ncncc1F)[C@](O)(Cn1cncn1)c1ccc(F)cc1F
cell viability [%]
Conditions | NOMO1 [1] | P12-Ichikawa [2] | SEM cells [3]
HPLM + 10% dialyzed FBS, 0.000781 µM | 117 | 111 | 119
HPLM + 10% dialyzed FBS, 0.00234 µM | 121 | 115 | 116
HPLM + 10% dialyzed FBS, 0.00702 µM | 110 | 110 | 118
HPLM + 10% dialyzed FBS, 0.0211 µM | 110 | 107 | 110
HPLM + 10% dialyzed FBS, 0.0632 µM | 125 | 107 | 121
HPLM + 10% dialyzed FBS, 0.19 µM | 114 | 107 | 25.3
HPLM + 10% dialyzed FBS, 0.569 µM | 120 | 110 | 114
HPLM + 10% dialyzed FBS, 1.71 µM | 107 | 108 | 118
HPLM + 10% dialyzed FBS, 5.12 µM | 111 | 103 | 19
HPLM + 10% dialyzed FBS, 15.4 µM | 108 | 102 | 120
HPLM + 10% dialyzed FBS, 46.1 µM | 93.3 | 89.6 | 83.4
RPMI 5 mM glucose + 10% FBS, 0.000781 µM | 111 | 123 | –
RPMI 5 mM glucose + 10% FBS, 0.00234 µM | 111 | 130 | –
RPMI 5 mM glucose + 10% FBS, 0.00702 µM | 114 | 119 | –
RPMI 5 mM glucose + 10% FBS, 0.0211 µM | 103 | 121 | –
RPMI 5 mM glucose + 10% FBS, 0.0632 µM | 108 | 111 | –
RPMI 5 mM glucose + 10% FBS, 0.19 µM | 107 | 119 | –
RPMI 5 mM glucose + 10% FBS, 0.569 µM | 126 | 116 | –
RPMI 5 mM glucose + 10% FBS, 1.71 µM | 108 | 114 | –
RPMI 5 mM glucose + 10% FBS, 5.12 µM | 107 | 98.9 | –
RPMI 5 mM glucose + 10% FBS, 15.4 µM | 91.1 | 105 | –
RPMI 5 mM glucose + 10% FBS, 46.1 µM | 93.8 | 92.6 | –
RPMI 5 mM glucose + 10% dialyzed FBS, 0.000781 µM | 111 | 109 | 123
RPMI 5 mM glucose + 10% dialyzed FBS, 0.00234 µM | 114 | 118 | 125
RPMI 5 mM glucose + 10% dialyzed FBS, 0.00702 µM | 128 | 116 | 126
RPMI 5 mM glucose + 10% dialyzed FBS, 0.0211 µM | 115 | 105 | 126
RPMI 5 mM glucose + 10% dialyzed FBS, 0.0632 µM | 111 | 111 | 141
RPMI 5 mM glucose + 10% dialyzed FBS, 0.19 µM | 97.9 | 104 | 32.3
RPMI 5 mM glucose + 10% dialyzed FBS, 0.569 µM | 108 | 108 | 140
RPMI 5 mM glucose + 10% dialyzed FBS, 1.71 µM | 116 | 107 | 103
RPMI 5 mM glucose + 10% dialyzed FBS, 5.12 µM | 99.8 | 102 | 15.2
RPMI 5 mM glucose + 10% dialyzed FBS, 15.4 µM | 111 | 89.5 | 121
RPMI 5 mM glucose + 10% dialyzed FBS, 46.1 µM | 97.4 | 91.4 | 73.9

AUC of viability dose-response curve
Conditions | HPLM + 10% dialyzed FBS | RPMI 5 mM glucose + 10% FBS | RPMI 5 mM glucose + 10% dialyzed FBS
NOMO1 [4] | 462 | 448 | 446
P12-Ichikawa [5] | 464 | 436 | 450
